Like-named read-outs stand apart in the source and are kept apart here.

A short description of data set [1]: mouse plasma degradation assay (Methods MP1-MP3). Type of data set: in vitro ADME. The procedure:
The oligomer was then diluted 1/50 with a solution of plasma/PBS pH 7.4 (1/1) to afford a final concentration of 5μM and incubated at 37°C. […] (t = 0 min was determined using the reaction without plasma). The samples were frozen at -80°C before analysis. […] The supernatant was analyzed by LC-MS. The time course of oligomer degradation was determined by integrating the area of the peak in the extracted ion chromatogram. […] The oligomer was then diluted 1/50 with a solution of plasma/PBS pH 7.4 (1/1) to afford a final concentration of 5μM and incubated at 37°C. […] The oligomer was then diluted 1/50 with a solution of plasma/PBS pH 7.4 (1/1) to afford a final concentration of 5μM and incubated at 37°C. […] Animals. […] A standard chow diet (RM1 (E) 801492, SDS) and tap water were provided ad libitum. All animal protocols done by Physiogenex S.A.S were reviewed and approved by the local (Comité […] national ([…]

A further data set has as its target T1, mouse GLP-1 receptor (Mus musculus, UniProt O35659).
T1 construct: βTC6 cells which express GLP-1R endogenously; host or cells: βTC6 cells
T1 sequence (O35659 22-463): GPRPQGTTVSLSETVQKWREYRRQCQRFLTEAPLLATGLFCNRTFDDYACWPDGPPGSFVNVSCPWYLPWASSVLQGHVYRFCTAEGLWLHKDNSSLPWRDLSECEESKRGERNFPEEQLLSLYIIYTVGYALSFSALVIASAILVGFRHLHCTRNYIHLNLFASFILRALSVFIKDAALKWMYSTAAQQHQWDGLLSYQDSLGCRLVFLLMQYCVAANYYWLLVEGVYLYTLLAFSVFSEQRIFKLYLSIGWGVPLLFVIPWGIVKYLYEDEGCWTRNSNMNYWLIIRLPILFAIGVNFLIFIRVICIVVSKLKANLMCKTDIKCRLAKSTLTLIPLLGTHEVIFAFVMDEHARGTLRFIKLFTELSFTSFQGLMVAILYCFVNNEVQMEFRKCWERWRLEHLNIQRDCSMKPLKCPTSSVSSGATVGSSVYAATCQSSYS
Put plainly: cAMP production in βTC6 cells expressing GLP-1R endogenously (Method C2). Type of data set: cell-based. The following applies: for Potency (%), Table S1: from EC50 in βTC6 cAMP assay, footnote: compare to GLP-1-NH2 (2); for EC50: read-out: EC50 (GLP-1R potency), Table S1. A general note: cAMP levels reflect the balance of adenylyl cyclase and phosphodiesterase activity.

The target of the next data set is GLP-1R (Homo sapiens, UniProt P43220). Put plainly: cAMP production functional assay in HEK293 cells transfected with GLP-1R (Method C1). Type of data set: cell-based. More on the design: host or cells: HEK-293T. The following applies: HEK-293T cells exogenously expressing human GLP-1R, cAMP by HTRF, 10 min at 37 °C, Method C1; mean, n = 3 (2: n = 6); read-out: EC50 (GLP-1R potency).

The mark [2] stands for this setting: mouse plasma diluted 1/1 with PBS, mouse plasma/PBS pH 7.4 (1/1), 5 µM, 37 °C, acetonitrile quench, LC-MS extracted ion chromatogram, MP1 for 2-8, MP2 for 9-11, MP3 for 12-14, mean, n = 3, read-out: Mouse plasma t1/2 (converted).

Chain of GLP-1R (P43220 24-463): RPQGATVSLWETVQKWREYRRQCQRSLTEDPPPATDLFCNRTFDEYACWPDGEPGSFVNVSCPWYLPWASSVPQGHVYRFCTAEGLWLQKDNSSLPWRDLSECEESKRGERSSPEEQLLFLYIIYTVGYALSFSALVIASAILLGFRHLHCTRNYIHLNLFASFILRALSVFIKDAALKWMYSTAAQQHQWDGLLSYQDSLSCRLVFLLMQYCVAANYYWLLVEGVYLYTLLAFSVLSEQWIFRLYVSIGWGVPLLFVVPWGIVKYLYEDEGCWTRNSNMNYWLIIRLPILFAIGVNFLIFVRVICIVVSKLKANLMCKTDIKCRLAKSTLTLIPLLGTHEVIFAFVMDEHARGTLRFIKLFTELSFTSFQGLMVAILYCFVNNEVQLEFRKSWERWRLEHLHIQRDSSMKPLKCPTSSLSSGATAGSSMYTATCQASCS

As usually defined, the EC50 is the concentration that produces a half-maximal response. As to `CC[C@H](C)[C@H](NC(=O)[C@H](Cc1ccccc1)NC(=O)[C@H](CCC(=O)O)NC(=O)[C@H](CCCCN)NC(=O)[C@H](C)NC(=O)[C@H](C)NC(=O)[C@H](CCC(N)=O)NC(=O)CNC(=O)[C@H](CCC(=O)O)NC(=O)[C@H](CC(C)C)NC(=O)[C@H](Cc1ccc(O)cc1)NC(=O)[C@H](CO)NC(=O)[C@H](CO)NC(=O)[C@@H](NC(=O)[C@H](CC(=O)O)NC(=O)[C@H](CO)NC(=O)[C@@H](NC(=O)[C@H](Cc1ccccc1)NC(=O)[C@@H](NC(=O)CNC(=O)[C@H](CCC(=O)O)NC(=O)NC[C@@H](NC(=O)[C@@H](N)Cc1c[nH]cn1)C(C)C)[C@@H](C)O)[C@@H](C)O)C(C)C)C(=O)N[C@@H](C)C(=O)N[C@@H](Cc1c[nH]c2ccccc12)C(=O)N[C@@H](CC(C)C)C(=O)N[C@H](C(=O)N[C@@H](CCCCN)C(=O)NCC(=O)N[C@@H](CCCNC(=N)N)C(=O)NCC(N)=O)C(C)C` [compound 8], the half-life at 5 µM in data set [1] (setting [2]) was 18 min. In addition, the “loss in potency relative to 3 (fold)” value at mouse GLP-1 receptor (figures for 6-8 match the βTC6 EC50 values of Table S1) was more than 1000 fold. Moreover, the “Potency (%), Table S1” value at mouse GLP-1 receptor is less than 0.01%. The values for the EC50 at mouse GLP-1 receptor and on GLP-1R were more than 10000 nM and 2.12 nM, respectively.
`CC[C@H](C)[C@H](NC(=O)[C@H](Cc1ccccc1)NC(=O)[C@H](CCC(=O)O)NC(=O)[C@H](CCCCN)NC(=O)[C@H](C)NC(=O)[C@H](C)NC(=O)[C@H](CCC(N)=O)NC(=O)CNC(=O)[C@H](CCC(=O)O)NC(=O)[C@H](CC(C)C)NC(=O)[C@H](Cc1ccc(O)cc1)NC(=O)[C@H](CO)NC(=O)[C@H](CO)NC(=O)[C@@H](NC(=O)[C@H](CC(=O)O)NC(=O)[C@H](CO)NC(=O)[C@@H](NC(=O)[C@H](Cc1ccccc1)NC(=O)[C@@H](NC(=O)CNC(=O)[C@H](CCC(=O)O)NC(=O)[C@H](C)NC(=O)[C@@H](N)Cc1cnc[nH]1)[C@@H](C)O)[C@@H](C)O)C(C)C)C(=O)N[C@@H](C)C(=O)N[C@@H](Cc1c[nH]c2ccccc12)C(=O)N[C@@H](CC(C)C)C(=O)N[C@H](C(=O)N[C@@H](CCCCN)C(=O)NCC(=O)N[C@@H](CCCNC(=N)N)C(=O)NCC(N)=O)C(C)C` [compound 2, GLP-1-NH2, reference compound] gave a half-life at 5 µM in data set [1] (mouse, plasma, pH 7.4) of 8.4 min.
As for `CC[C@H](C)[C@H](NC(=O)[C@H](Cc1ccccc1)NC(=O)[C@H](CCC(=O)O)NC(=O)[C@H](CCCCN)NC(=O)[C@H](C)NC(=O)[C@H](C)NC(=O)[C@H](CCC(N)=O)NC(=O)CNC(=O)[C@H](CCC(=O)O)NC(=O)[C@H](CC(C)C)NC(=O)[C@H](Cc1ccc(O)cc1)NC(=O)[C@H](CO)NC(=O)[C@H](CO)NC(=O)[C@@H](NC(=O)[C@H](CC(=O)O)NC(=O)[C@H](CO)NC(=O)[C@@H](NC(=O)[C@H](Cc1ccccc1)NC(=O)[C@@H](NC(=O)CNC(=O)[C@H](CCC(=O)O)NC(=O)CC[C@H](C)NC(=O)[C@@H](N)Cc1c[nH]cn1)[C@@H](C)O)[C@@H](C)O)C(C)C)C(=O)N[C@@H](C)C(=O)N[C@@H](Cc1c[nH]c2ccccc12)C(=O)N[C@@H](CC(C)C)C(=O)N[C@H](C(=O)N[C@@H](CCCCN)C(=O)NCC(=O)N[C@@H](CCCNC(=N)N)C(=O)NCC(N)=O)C(C)C` [compound 4], in data set [1] (setting [2]), the half-life at 5 µM is 13.8 min.
In the case of `CC[C@H](C)[C@H](NC(=O)[C@H](Cc1ccccc1)NC(=O)[C@H](CCC(=O)O)NC(=O)[C@H](CCCCN)NC(=O)[C@H](C)NC(=O)[C@H](C)NC(=O)[C@H](CCC(N)=O)NC(=O)CNC(=O)[C@H](CCC(=O)O)NC(=O)[C@H](CC(C)C)NC(=O)[C@H](Cc1ccc(O)cc1)NC(=O)[C@H](CO)NC(=O)[C@H](CO)NC(=O)[C@@H](NC(=O)[C@H](CC(=O)O)NC(=O)[C@H](CO)NC(=O)[C@@H](NC(=O)[C@H](Cc1ccccc1)NC(=O)[C@@H](NC(=O)CNC(=O)[C@H](CCC(=O)O)NC(=O)OC[C@H](C)NC(=O)[C@@H](N)Cc1c[nH]cn1)[C@@H](C)O)[C@@H](C)O)C(C)C)C(=O)N[C@@H](C)C(=O)N[C@@H](Cc1c[nH]c2ccccc12)C(=O)N[C@@H](CC(C)C)C(=O)N[C@H](C(=O)N[C@@H](CCCCN)C(=O)NCC(=O)N[C@@H](CCCNC(=N)N)C(=O)NCC(N)=O)C(C)C` [compound 5], the half-life at 5 µM in data set [1] (setting [2]) was 12.6 min. Further, on mouse GLP-1 receptor, the “Potency (%), Table S1” value is reported as 13% and the EC50 worked out at 0.8 nM.
For the molecule `CC[C@H](C)[C@H](NC(=O)[C@H](Cc1ccccc1)NC(=O)[C@H](CCC(=O)O)NC(=O)[C@H](CCCCN)NC(=O)[C@H](C)NC(=O)[C@H](C)NC(=O)[C@H](CCC(N)=O)NC(=O)CNC(=O)[C@H](CCC(=O)O)NC(=O)[C@H](CC(C)C)NC(=O)[C@H](Cc1ccc(O)cc1)NC(=O)[C@H](CO)NC(=O)[C@H](CO)NC(=O)[C@@H](NC(=O)[C@H](CC(=O)O)NC(=O)[C@H](CO)NC(=O)[C@@H](NC(=O)[C@H](Cc1ccccc1)NC(=O)[C@@H](NC(=O)CNC(=O)[C@H](CCC(=O)O)NC(=O)NC[C@H](Cc1ccccc1)NC(=O)[C@@H](N)Cc1c[nH]cn1)[C@@H](C)O)[C@@H](C)O)C(C)C)C(=O)N[C@@H](C)C(=O)N[C@@H](Cc1c[nH]c2ccccc12)C(=O)N[C@@H](CC(C)C)C(=O)N[C@H](C(=O)N[C@@H](CCCCN)C(=O)NCC(=O)N[C@@H](CCCNC(=N)N)C(=O)NCC(N)=O)C(C)C` [S9], on mouse GLP-1 receptor, the “Potency (%), Table S1” value amounted to 21% and the EC50 is 0.5 nM.
Regarding `CC[C@H](C)[C@H](NC(=O)[C@H](Cc1ccccc1)NC(=O)[C@H](CCC(=O)O)NC(=O)[C@H](CCCCN)NC(=O)[C@H](C)NC(=O)[C@H](C)NC(=O)[C@H](CCC(N)=O)NC(=O)CNC(=O)[C@H](CCC(=O)O)NC(=O)[C@H](CC(C)C)NC(=O)[C@H](Cc1ccc(O)cc1)NC(=O)[C@H](CO)NC(=O)[C@H](CO)NC(=O)[C@@H](NC(=O)[C@H](CC(=O)O)NC(=O)[C@H](CO)NC(=O)[C@@H](NC(=O)[C@H](Cc1ccccc1)NC(=O)[C@@H](NC(=O)CNC(=O)[C@H](CCC(=O)O)NC(=O)NC[C@H](CS)NC(=O)[C@@H](N)Cc1c[nH]cn1)[C@@H](C)O)[C@@H](C)O)C(C)C)C(=O)N[C@@H](C)C(=O)N[C@@H](Cc1c[nH]c2ccccc12)C(=O)N[C@@H](CC(C)C)C(=O)N[C@H](C(=O)N[C@@H](CCCCN)C(=O)NCC(=O)N[C@@H](CCCNC(=N)N)C(=O)NCC(N)=O)C(C)C` [S3], on mouse GLP-1 receptor, the “Potency (%), Table S1” value amounted to 0% and the EC50 was 65 nM.
As to `CC[C@H](C)[C@H](NC(=O)[C@H](Cc1ccccc1)NC(=O)[C@H](CCC(=O)O)NC(=O)[C@H](CCCCN)NC(=O)[C@H](C)NC(=O)[C@H](C)NC(=O)[C@H](CCC(N)=O)NC(=O)CNC(=O)[C@H](CCC(=O)O)NC(=O)[C@H](CC(C)C)NC(=O)[C@H](Cc1ccc(O)cc1)NC(=O)[C@H](CO)NC(=O)[C@H](CO)NC(=O)[C@@H](NC(=O)[C@H](CC(=O)O)NC(=O)[C@H](CO)NC(=O)[C@@H](NC(=O)[C@H](Cc1ccccc1)NC(=O)[C@@H](NC(=O)CNC(=O)[C@H](CCC(=O)O)NC(=O)NC[C@@H](NC(=O)[C@@H](N)Cc1c[nH]cn1)[C@@H](C)O)[C@@H](C)O)[C@@H](C)O)C(C)C)C(=O)N[C@@H](C)C(=O)N[C@@H](Cc1c[nH]c2ccccc12)C(=O)N[C@@H](CC(C)C)C(=O)N[C@H](C(=O)N[C@@H](CCCCN)C(=O)NCC(=O)N[C@@H](CCCNC(=N)N)C(=O)NCC(N)=O)C(C)C` [S10], at mouse GLP-1 receptor, the “Potency (%), Table S1” value is recorded as 3% and the EC50 was determined as 3.3 nM.

The values are drawn from paper PMC6977461 (Chemical Science, 2019).
